In US10709710B2, “Composition comprising uric acid for the treatment treated with mechanical thrombectomy” (Hospital Clinic de Barcelona, priority 2017, dated 2020):

What was measured:
[1] = tested on: ischemic brain stroke patients treated with mechanical thrombectomy; test: Treatment with uric acid of ischemic brain stroke patients treated with intravenous thrombolysis and mechanical thrombectomy; assay type: in vivo, humans
Description: Example 1. Treatment with uric acid of ischemic brain stroke patients treated with intravenous thrombolysis and mechanical thrombectomy.
In total, 45 ischemic brain stroke patients were enrolled in this study and received the combination of thrombolytic treatment (using rt-PA) and mechanical thrombectomy. […] The patients of this study were recruited at eight centres and, in all the cases, the corresponding informed consent was obtained from the patient or its legal representative.
(§1) All patients that were selected for the study received one standard dose ([…]) of rtPA (in the present case, intravenous alteplase) within the 4.5 hours following the brain stroke. During infusion of intravenous alteplase, patients were assigned randomly in a 1:1 proportion to the uric acid group or to the placebo group, so that they received 500 ml of intravenous solution of 1000 mg of uric acid or placebo (physiologic serum comprising 0.1% […] and 5% mannitol), respectively, both contained in glass bottles covered with opaque yellow bags tag in identical manner. Said treatment with uric acid or placebo was applied during 90 minutes.
The mechanical thrombectomy procedure was carried in accordance to the procedure pointed out in the REVASCAT assay (Jovin T G, Chamorro A, Cobo E, de Miguel M A, Molina C A, Rovira A, San Román L, Serena J, Abilleira S, Ribó M, Millán M, Urra X, Cardona P, López-Cancio E, Tomasello A, Castaño C, Blasco J, Aja L, Dorado L, Quesada H, Rubiera M, Hernandez-Pérez M, Goyal M, Demchuk A M, von Kummer R, Gallofré M, Dávalos A; REVASCAT Trial Investigators.. Thrombectomy within 8 hours after symptom onset in ischemic stroke. N Engl J Med. 2015; 372:2296-306) and it was started before the 90 minutes of the infusion of the composition with uric acid or placebo had elapsed.
To determine if the revascularization was successful the conventional technique of digital angiography by subtraction was used. Successful vessel revascularization was considered that with grade 2b (indicating reperfusion of from 50% to 90% of the damaged zone), or grade 3 (complete reperfusion of the damaged zone) in accordance with the modified Thrombolysis in Cerebral Infarction (hereinafter, mTICI) scale of 0 to 3.
In addition, certain parameters (death, incidence of intracranial hemorrhages and incidence of gout attacks) were measured in order to determine the safety of the new treatment (treatment of the present invention).

[2] = tested on: patients with acute stroke; settings: URICO-ICTUS phase 2b/3, cited from earlier work
[3] = tested on: occlusion of the middle cerebral artery; settings: adult rat; uric acid 24 hours before the occlusion or 1 hour after the reperfusion; cited from earlier work
[4] = tested on: patients with ischemic brain stroke not treated with mechanical thrombectomy; test: Same type of study in ischemic brain stroke patients not treated with mechanical thrombectomy; assay type: in vivo, humans
Description: as §1
The same type of study was carried out with other subpopulations with ischemic brain stroke (not treated with mechanical thrombectomy, but the rest of the treatment and the procedure was the same).

[5] = tested on: thromboembolism model of focal cerebral ischemia; settings: rat thromboembolism model; synergic with rtPA; cited from earlier work
hippocampus cells = settings: culture of hippocampus cells; cited from earlier work
[6] = in words, with mechanical thrombectomy
[7] = with mechanical thrombectomy, uric acid group n = 24
[8] = Patients which consume alcohol, uric acid n = 10
[9] = Patients which have suffered previous brain stroke, uric acid n = 30
[10] = Patients with atrial fibrillation, uric acid n = 35
[11] = Patients with cardioembolism, uric acid n = 86
[12] = Patients with coronary disease, uric acid n = 31
[13] = Patients with diabetes, uric acid n = 55
[14] = Patients with dyslipidaemia, uric acid n = 81
[15] = Smoking patients, uric acid n = 35
[16] = Women patients, uric acid n = 100
[17] = general population not treated with mechanical thrombectomy, uric acid n = 187
[18] = in words, general population without mechanical thrombectomy

## O=c1[nH]c(=O)c2[nH]c(=O)[nH]c2[nH]1 [Uric acid, uric acid]
[1]; in words, mTICI grade 2b or 3
  successfulness in the revascularization, uric acid vs placebo: no significant differences
[1]; [6]
  complete independence of the patients at 90 days (Barthel index score of 95-100), uric acid vs placebo: statistically significant and surprising improvement
  good results at 90 days (mRS score of between 0-2), uric acid vs placebo: statistically significant and surprising improvement
  growth of the infarcted zone at 72 hours from the treatment, uric acid vs placebo: statistically significant and surprising improvement
  rest of measured parameters, uric acid vs placebo: positive and improvement tendency
  safety: death, incidence of intracranial hemorrhages and incidence of gout attacks, uric acid vs placebo: no differences were observed
[1]; revascularization by digital subtraction angiography, uric acid 1000 mg i.v. + rtPA + mechanical thrombectomy, n = 24
  mTICI Score 0, number of patients: 3
[1]; revascularization by digital subtraction angiography, uric acid group n = 24
  mTICI Score 0, share of group (in parentheses): (13)
[1]; uric acid group n = 24
  mTICI Score 1, number of patients: 0
  mTICI Score 2a, number of patients: 1
  mTICI Score 2a, share of group (in parentheses): (4)
  mTICI Score 2b, number of patients: 7
  mTICI Score 2b, share of group (in parentheses): (29)
  mTICI Score 2b/3 (successful revascularization), number of patients: 20
  mTICI Score 2b/3 (successful revascularization), share of group (in parentheses): (83)
  mTICI Score 3, number of patients: 13
  mTICI Score 3, share of group (in parentheses): (54)
[1]; with mechanical thrombectomy, uric acid 1000 mg i.v. + rtPA, n = 24
  mRS score of between 0-2 at 90 días, %: (66.6) %
[1]; [7]
  Barthel index score of 95-100 at 90 days, %: (66.6) %
  Growth of the infarcted zone at 72 hours of the treatment, mean: -33.2 mL
  NIHSS score 0 at 90 days, %: (37.5) %
  Volume of the infarcted zone at 72 hours of the treatment measured by means of magnetic resonance image of the brain, mean: 17.2
[2]
  safety of uric acid in combination with the standard thrombolytic treatment (alteplase): safe
[2]; combined with alteplase
  proportion of patients with excellent results at 90 days: no change was seen
[3]
  lipid peroxidation: reduces
  reactive oxygen species accumulation: suppresses
  resulting cerebral infarction: significantly reduces
[4]; Men patients, uric acid n = 87
  Barthel index score of 95-100 at 90 days, %: (50.6) %
  mRS score of between 0-2 at 90 dies, %: (51.7) %
[4]; [8]
  Barthel index score of 95-100 at 90 days, %: (20) %
  mRS score of between 0-2 at 90 dies, %: (40) %
[4]; [9]
  Barthel index score of 95-100 at 90 days, %: (40) %
  mRS score of between 0-2 at 90 dies, %: (43.3) %
[4]; [10]
  Barthel index score of 95-100 at 90 days, %: (31.4) %
  mRS score of between 0-2 at 90 dies, %: (42.9) %
[4]; [11]
  Barthel index score of 95-100 at 90 days, %: (45.3) %
  mRS score of between 0-2 at 90 dies, %: (48.8) %
[4]; [12]
  Barthel index score of 95-100 at 90 days, %: (51.6) %
  mRS score of between 0-2 at 90 dies, %: (45.2) %
[4]; [13]
  Barthel index score of 95-100 at 90 days, %: (45.8) %
  mRS score of between 0-2 at 90 dies, %: (45.5) %
[4]; [14]
  Barthel index score of 95-100 at 90 days, %: (50.6) %
  mRS score of between 0-2 at 90 dies, %: (49.4) %
[4]; Patients with hypertension (arterial pressure over 160 mmHg), uric acid n = 131
  mRS score of between 0-2 at 90 dies, %: (48.9) %
[4]; Patients with hypertension, uric acid n = 131
  Barthel index score of 95-100 at 90 days, %: (45.8) %
[4]; Patients with large vessel arteriosclerosis (arterial stenosis +2250%), uric acid n = 19
  mRS score of between 0-2 at 90 dies, %: (31.6) %
[4]; Patients with large vessel arteriosclerosis, uric acid n = 19
  Barthel index score of 95-100 at 90 days, %: (21.1) %
[4]; [15]
  Barthel index score of 95-100 at 90 days, %: (42.9) %
  mRS score of between 0-2 at 90 dies, %: (50) %
[4]; [16]
  Barthel index score of 95-100 at 90 days, %: (42) %
  mRS score of between 0-2 at 90 dies, %: (50) %
[4]; [17]
  Barthel index score of 95-100 at 90 days, %: 45.6%
  mRS score of between 0-2 at 90 dies, %: 44.7%
[4]; [18]
  effect in the percentage of patients with Barthel index score 95-100: only a minimal effect
  effect in the percentage of patients with an mRS score of between 0 and 2 at 90 days: did not show a detectable effect
[5]
  neuroprotective effect: neuroprotective
Hippocampus cells
  protection against excitotoxic damage by glutamate: protects against excitotoxic damage by glutamate
